Tests used:
[1] = Antiproliferative activity against human WSUDLCL2 cells assessed as inhibition of cell growth measured after 6 days by CellTiter-Glo luminescent assay; type: functional; conditions: WSUDLCL2, 144 h, time 6 day
[2] = Half life in rat at 10 mg/kg, po; type: ADME, organism-based; conditions: in vivo
[3] = Cmax in rat at 10 mg/kg, po; type: ADME, organism-based; parameters: route oral, dose 10 mg/kg; conditions: in vivo
[4] = AUC (0 to infinity) in rat at 10 mg/kg, po; type: ADME, organism-based; parameters: time infinity, route oral, dose 10 mg/kg; conditions: in vivo
[5] = Apparent volume of distribution in rat at 10 mg/kg, po; type: ADME, organism-based; conditions: in vivo
[6] = Clearance in rat at 10 mg/kg, po; type: ADME, organism-based; conditions: in vivo; for CL: 10 mg/kg
[7] = Oral bioavailability in rat at 10 mg/kg; type: ADME, organism-based; conditions: in vivo
[8] = Half life in rat at 1 mg/kg, iv; type: ADME, organism-based; conditions: in vivo
[9] = Cmax in rat at 1 mg/kg, iv; type: ADME, organism-based; parameters: route intravenous, dose 1 mg/kg; conditions: in vivo
[10] = AUC (0 to infinity) in rat at 1 mg/kg, iv; type: ADME, organism-based; parameters: route intravenous, time infinity, dose 1 mg/kg; conditions: in vivo
[11] = Apparent volume of distribution in rat at 1 mg/kg, iv; type: ADME, organism-based; conditions: in vivo; for Vd: read-out: Vz
[12] = Clearance in rat at 1 mg/kg, iv; type: ADME, organism-based; conditions: in vivo
Pfeiffer [13] = test: Antiproliferative activity against human Pfeiffer cells harboring EZH2 A677G mutant assessed as inhibition of cell growth measured after 6 days by CellTiter-Glo luminescent assay; type: functional; conditions: 144 h, time 6 day
[14] = Antiproliferative activity against human WSUDLCL2 cells harboring EZH2 Y641F mutant assessed as inhibition of cell growth measured after 6 days by CellTiter-Glo luminescent assay; type: functional; conditions: WSUDLCL2, 144 h, time 6 day
KARPAS-422 [15] = test: Antiproliferative activity against human KARPAS-422 cells harboring EZH2 Y641N mutant assessed as inhibition of cell growth measured after 6 days by CellTiter-Glo luminescent assay; type: functional; conditions: KARPAS-422, 144 h, time 6 day
SU-DHL-6 = test: Antiproliferative activity against human SU-DHL-6 cells harboring EZH2 Y641N mutant assessed as inhibition of cell growth measured after 6 days by CellTiter-Glo luminescent assay; type: functional; conditions: SU-DHL-6, 144 h, time 6 day
SUD4 = test: Antiproliferative activity against human SU-DHL-4 cells harboring EZH2 Y641S mutant assessed as inhibition of cell growth measured after 6 days by CellTiter-Glo luminescent assay; type: functional; conditions: SU-DHL-4, 144 h, time 6 day
U2932 = test: Antiproliferative activity against human U2932 cells expressing wild type EZH2 assessed as inhibition of cell growth measured after 6 days by CellTiter-Glo luminescent assay; type: functional; conditions: U2932, 144 h, time 6 day
Pfeiffer [16] = test: Antitumor activity against human Pfeiffer cells harboring EZH2 A677G mutant xenografted in NCG mouse assessed as tumor growth inhibition at 200 mg/kg, po BID via gavage measured after 28 days relative to control; type: functional; conditions: 672 h, time 28 day, read-out: TGI
KARPAS-422 [17] = test: Antitumor activity against human KARPAS-422 cells harboring EZH2 Y641N mutant xenografted in NCG mouse assessed as tumor growth inhibition at 200 mg/kg, po BID via gavage measured after 28 days relative to control; type: functional; conditions: KARPAS-422, po, 672 h, time 28 day, read-out: TGI
[18] = Toxicity in NCG mouse xenografted with human Pfeiffer cells harboring EZH2 A677G mutant assessed as effect on body weight at 200 mg/kg, po BID via gavage measured after 28 days; type: organism-based; conditions: in vivo, 672 h, time 28 day
[19] = Toxicity in NCG mouse xenografted with human KARPAS-422 cells harboring EZH2 Y641N mutant assessed as effect on body weight at 200 mg/kg, po BID via gavage measured after 28 days; type: organism-based; conditions: in vivo, 672 h, time 28 day
KARPAS-422 [20] = test: Antitumor activity against human KARPAS-422 cells harboring EZH2 Y641N mutant xenografted in NCG mouse assessed as change in tumor weight at 200 mg/kg, po BID via gavage measured after 28 days (reference value: 2.14 g); type: functional; conditions: time 28 day

For CCN(C(=O)C1CC1)c1cc(-c2cnc(N3CCN(CC4CC4)CC3)c(C)c2)cc(C(=O)NCc2c(C)cc(C)[nH]c2=O)c1C, the GI50 [1] was 0.3 µM, the t1/2 ([2]; 10 mg/kg) was 1.82 h and the Cmax [3] was 0.042 µg/mL. It also gave an AUC [4] of 0.132 µg·h/mL, a Vz [5] of 205.232 L/kg and a CL [6] of 9.346 L/h/kg. For the same compound, the bioavailability [7] was 4.8%, the t1/2 ([8]; 1 mg/kg) was 1.79 h and the Cmax [9] was 0.609 µg/mL. The AUC(0-inf) [10] was 0.277 µg·h/mL, the Vz ([11]; 1 mg/kg) was 79.554 L/kg and the CL ([12]; 1 mg/kg) was 3.652 L/h/kg.
CCN(C(=O)C1CC1)c1cc(-c2ccc(NC(=O)c3cccnc3)cc2)cc(C(=O)NCc2c(C)cc(C)[nH]c2=O)c1C gave a GI50 [1] of 0.8 µM.
With CCN(C(=O)C1CC1)c1cc(-c2ccc(N3CCN(CC4CC4)CC3)cc2)cc(C(=O)NCc2c(C)cc(C)[nH]c2=O)c1C the GI50 [1] was 0.1 µM.
CC[C@H](C)n1cc(C)c2c(C(=O)NCc3c(C)cc(C)[nH]c3=O)cc(-c3ccc(N4CCNCC4)nc3)cc21 [GSK2816126] showed a GI50 [1] of 5 µM.
CCN(C(=O)C1CC1)c1cc(-c2ccc(N)cc2)cc(C(=O)NCc2c(C)cc(C)[nH]c2=O)c1C showed a GI50 [1] of 0.8 µM.
Work on Cc1cc(C)c(CNC(=O)c2cc(-c3ccc(CN4CCOCC4)cc3)cc3c2CCN3C(=O)c2ccco2)c(=O)[nH]1 yielded a GI50 [1] of 51.6 µM.
Compound CCN(C(=O)C1CCCC1)c1cc(-c2ccc(CN3CCOCC3)cc2)cc(C(=O)NCc2c(C)cc(C)[nH]c2=O)c1C has a GI50 [1] of 0.3 µM, a half-life [2] of 1.03 h and a Cmax [3] of 0.473 µg/mL. The AUC(0-inf) [4] was 0.406 µg·h/mL, the Vz [5] was 53.401 L/kg and the CL/F [6] was 32.5 L/h/kg. It also gave a bioavailability [7] of 15.1%, a half-life [8] of 0.38 h and a Cmax [9] of 0.824 µg/mL. It also gave an AUC(0-inf) [10] of 0.269 µg·h/mL, a Vd [11] of 2.03 L/kg and a clearance [12] of 3.76 L/h/kg.
For CCN(C(=O)C1CC1)c1cc(-c2ccc(NC(=O)c3cccs3)cc2)cc(C(=O)NCc2c(C)cc(C)[nH]c2=O)c1C, the GI50 [1] was 0.9 µM.
With CCN(C(=O)C1CCC1)c1cc(-c2ccc(CN3CCOCC3)cc2)cc(C(=O)NCc2c(C)cc(C)[nH]c2=O)c1C the GI50 [1] was 0.9 µM.
Compound CCN(C(=O)c1ccccc1)c1cc(-c2ccc(CN3CCOCC3)cc2)cc(C(=O)NCc2c(C)cc(C)[nH]c2=O)c1C has a GI50 [1] of 34.7 µM.
CCN(C(=O)C1CC1)c1cc(-c2cnc(N3CCN(CC4CC4)CC3)cc2C)cc(C(=O)NCc2c(C)cc(C)[nH]c2=O)c1C gave a GI50 [1] of 0.2 µM.
Work on Cc1cc(C)c(CNC(=O)c2cc(-c3ccc(CN4CCOCC4)cc3)cc3c2CCN3C(=O)C2CCCC2)c(=O)[nH]1 yielded a GI50 [1] of 44 µM.
Cc1cc(C)c(CNC(=O)c2cc(-c3ccc(CN4CCOCC4)cc3)cc3c2CCN3C(=O)C2CC2)c(=O)[nH]1 showed a GI50 [1] of 50.5 µM.
Work on Cc1cc(C)c(CNC(=O)c2cc(-c3ccc(CN4CCOCC4)cc3)cc3c2CCN3C(=O)C2CCOCC2)c(=O)[nH]1 yielded a GI50 [1] of 94.5 µM.
In the case of CCC(=O)N(CC)c1cc(-c2ccc(CN3CCOCC3)cc2)cc(C(=O)NCc2c(C)cc(C)[nH]c2=O)c1C, the GI50 [1] is reported as 0.9 µM.
CCN1CCN(c2ccc(-c3cc(C(=O)NCc4c(C)cc(C)[nH]c4=O)c(C)c(N(CC)C(=O)C4CC4)c3)cc2)CC1 gave a GI50 [1] of 0.2 µM, a half-life [2] of 2.08 h and a Cmax [3] of 0.115 µg/mL. For the same compound, the AUC [4] was 0.242 µg·h/mL, the Vz [5] was 470.567 L/kg and the CL [6] was 108.341 L/h/kg. The bioavailability [7] was 13%, the half-life [8] was 1.55 h and the Cmax [9] was 0.444 µg/mL. It also gave an AUC(0-inf) [10] of 0.241 µg·h/mL, a Vd [11] of 9.32 L/kg and a clearance [12] of 4.2 L/h/kg.
In the case of CCN(c1cc(-c2ccc(CN3CCOCC3)cc2)cc(C(=O)NCc2c(C)cc(C)[nH]c2=O)c1C)C1CCOCC1 [TAZEMETOSTAT], the GI50 [1] is reported as 0.3 µM, the GI50 (Pfeiffer [13]) is reported as 0.002 µM and the GI50 [14] is reported as 0.08 µM. The GI50 (KARPAS-422 [15]) was 0.09 µM, the GI50 (SU-DHL-6) was 1.05 µM and the GI50 (SUD4) was 3.39 µM. It also gave a GI50 (U2932) of over 10 µM, an inhibition in vivo at 200 mg/kg (Pfeiffer [16]) of 100% and an inhibition in vivo at 200 mg/kg (KARPAS-422 [17]) of 89.3%. For the same compound, the Activity [18] was “Non-Toxic”, the Activity [19] was “Non-Toxic” and the Activity (KARPAS-422 [20]) was 0.23 g.
Work on CCN(C(C)=O)c1cc(-c2ccc(CN3CCOCC3)cc2)cc(C(=O)NCc2c(C)cc(C)[nH]c2=O)c1C yielded a GI50 [1] of 13 µM.
CCN(C(=O)C1CC1)c1cc(-c2ccc(N3CCN(CC4CC4)CC3)nc2)cc(C(=O)NCc2c(C)cc(C)[nH]c2=O)c1C showed a GI50 [1] of 0.2 µM, a half-life [2] of 1.46 h and a Cmax [3] of 0.067 µg/mL. For the same compound, the AUC(0-inf) [4] was 0.26 µg·h/mL, the Vz [5] was 84.455 L/kg and the CL/F [6] was 40.5 L/h/kg. For the same compound, the bioavailability [7] was 9.4%, the half-life [8] was 1.25 h and the Cmax [9] was 0.673 µg/mL. For the same compound, the AUC(0-inf) [10] was 0.277 µg·h/mL, the Vd [11] was 6.5 L/kg and the clearance [12] was 3.62 L/h/kg.
CCN(C(=O)C(C)C)c1cc(-c2ccc(CN3CCOCC3)cc2)cc(C(=O)NCc2c(C)cc(C)[nH]c2=O)c1C gave a GI50 [1] of 0.5 µM.
For CCN(C(=O)C1CC1)c1cc(-c2ccc(CN3CCOCC3)cc2)cc(C(=O)NCc2c(C)cc(C)[nH]c2=O)c1C, the GI50 [1] was 0.2 µM, the half-life [2] was 1.88 h and the Cmax [3] was 0.106 µg/mL. The AUC(0-inf) [4] was 0.244 µg·h/mL, the Vz [5] was 208.585 L/kg and the CL/F [6] was 69.9 L/h/kg. It also gave a bioavailability [7] of 10.1%, a half-life [8] of 0.8 h and a Cmax [9] of 0.686 µg/mL. It also gave an AUC(0-inf) [10] of 0.242 µg·h/mL, a Vd [11] of 4.8 L/kg and a clearance [12] of 4.15 L/h/kg.
CCN(C(=O)C1CC1)c1cc(-c2ccc(NC(=O)CCN(C)C)cc2)cc(C(=O)NCc2c(C)cc(C)[nH]c2=O)c1C showed a GI50 [1] of 1.8 µM.
In the case of CCN(C(=O)C1CC1)c1cc(-c2ccc(NC(=O)C3CCOCC3)cc2)cc(C(=O)NCc2c(C)cc(C)[nH]c2=O)c1C, the GI50 [1] is reported as 0.7 µM.
In the case of CCN(C(=O)C1CC1)c1cc(-c2ccc(N3CCOCC3)cc2)cc(C(=O)NCc2c(C)cc(C)[nH]c2=O)c1C, the GI50 [1] is reported as 0.2 µM.
In the case of CCN(C(=O)C1CCOCC1)c1cc(-c2ccc(CN3CCOCC3)cc2)cc(C(=O)NCc2c(C)cc(C)[nH]c2=O)c1C, the GI50 [1] is reported as 16.2 µM.
Compound CCN(C(=O)C1CC1)c1cc(-c2ccc(N3CCNCC3)cc2)cc(C(=O)NCc2c(C)cc(C)[nH]c2=O)c1C has a GI50 [1] of 0.2 µM.
CCN(C(=O)C1CCCCC1)c1cc(-c2ccc(CN3CCOCC3)cc2)cc(C(=O)NCc2c(C)cc(C)[nH]c2=O)c1C showed a GI50 [1] of 32.4 µM.

Source: ChEMBL document CHEMBL4831544, “Discovery of IHMT-EZH2-115 as a Potent and Selective Enhancer of Zeste Homolog 2 (EZH2) Inhibitor for the Treatment of B-Cell Lymphomas” (J Med Chem, 2021)
